Results reported in US20090031435A1, “SMA Therapy and Cell Based Assay” (priority 2002, published 2009).

Key:
[1] = system: SMN2-luciferase reporter construct; test: SMN2-luciferase splicing reporter luminescence assay in C33A cells; assay type: cell-based, human; conditions: for SMN2 luminescence/SMN1 luminescence: highest point of the curve of increase in SMN2-luciferase luminescence minus increase in SMN1-luciferase luminescence (treated/control), dilution series max 10 uM; for luminescence from the SMN2-luciferase reporter construct: screen at 10 μM, ~48 hr
Protocol: (§1) In a screen to identify compounds capable of enhancing the inclusion of exon 7 in SMN2 mRNA, cells of the human cervical carcinoma cell line C33A (ATCC#HTB-31) were stably transformed with an SMN fragment/luciferase reporter gene construct that incorporated exons 6-8 of SMN1 or SMN2 for use in a high-throughput screening assay. These cells were cultured in Dulbecco's Modified Eagle's Medium (DMEM) with 10% Fetal Bovine Serum (Sigma F 2442), 50 units/mL penicillin 50 μg/mL streptomycin sulfate and 400 mg/L G418 (i.e. Geneticin, Gibco, cat. No. 11811-031). The assay medium used to perform the luciferase assay was identical to the growth medium except the G418 selection agent was omitted. To perform the luciferase assay, a single reagent (25 mM glycylglycine, 15 mM magnesium sulfate, 4 mM EGTA, adjusted to pH 7.85, to which is added 10 μM D-luciferin (Sigma L9504), 10 mM dithiothreitol (DTT, Roche Molecular Biochemicals 100034), 2 mM adenosine 5′-triphosphate (ATP, Sigma A7699), 50 μM CoenzymeA, sodium salt (Sigma C 3144) and 1.5% Triton X-100) was used to lyse the cells and to initiate the luciferase reaction.
(§2) Using this cell-based luminescence assay, a screen was performed to identify compounds that modulate SMN splicing. Stably transfected C33A cells (˜35-40 M cells/flask) were cultured, then removed from T-175 culture flasks with 3 mL trypsin, and quenched with 7 mL assay medium. The cells were spun down and re-suspended in assay medium to a concentration of ˜200,000 cells/mL. Cells were immediately seeded in 384-well assay plates (Nalge Nunc white plates, #164610) 57 μL/well for a cell density of 11,000 cells/well. Compounds from a library obtained from the National Institute of Neurological Disorders and Stroke (NINDS) were added to the cells to a final concentration of 10 μM (diluted with assay medium by 1000× from the 10 mM stock solution in DMSO). The cells were incubated with the test compounds at 37° C. for ˜48 hr. A Zymark Sciclone ALH was used for cell seeding and compound addition. After incubation, the assay plates were cooled to room temperature for ˜10-60 minutes. The medium and compounds were aspirated from the wells, followed by 6 rinse/aspirate cycles with a PBS solution. 53 μL of the luciferase assay reagent was added and the plate was immediately transferred to a luminescence plate reader. The plate was shaken for 30 minutes prior to reading. The plate processing steps were performed on an integrated Packard Minitrak/Sidetrak platereader.
(§3) To analyze the data, the dark count background was first subtracted from all luminescence readings. The signal from each compound treated well was divided by the average of 48 control wells on the same 384-well plate. Each compound library plate was tested in triplicate with each of the two cell lines, and the entire assay was repeated on two separate occasions, yielding six readings for each compound for each cell line. The highest and lowest of the six normalized readings were dropped and the remaining four readings averaged. These average values of compound-treated luminescence versus control luminescence are denoted “Xnorm(y)”, where X indicates the cell line, SMN1-luciferase or SMN2-luciferase, and y represents the compound. The difference of [SMN2norm(y)−SMN1norm(y)] measures the selective change in SMN2-luciferase expression versus change in SMN1 luciferase production upon treatment with compound y. This is the final score that is output.
(§4) These dilutions were created with a Zymark Sciclone ALH Z-8. Once created, the assay was performed as described for the screening process. Concentrations required to achieve 50% of the maximally achievable effect for each compound (“EC50”) were calculated using Xlfit (IDBS).

SMN1-luciferase control = SMN1-luciferase control splicing reporter luminescence assay in C33A cells; assay type: cell-based, human
Protocol: as §1, §2, §3, §4

| Molecule | Effect on splicing of SMN2-luciferase in C33A cells [1] | Effect on splicing of SMN1-luciferase control in C33A cells (SMN1-luciferase control) | SMN2 luminescence/SMN1 luminescence [1] | luminescence from the SMN2-luciferase reporter construct [1] |
| --- | --- | --- | --- | --- |
| COc1ccc2c(c1)c(CC(=O)O)c(C)n2C(=O)c1ccc(Cl)cc1 [1-(4-Chlorobenzoyl)-5-methoxy-2-methyl-3-indoleacetic acid] | None | None | – | – |
| CN1C(=O)c2ccc(-c3ccccc3)cc2C1(O)C(C)(C)C (stereo not drawn) [1-tert-butyl-1-hydroxy-2-methyl-6-phenyl-3-isoindolinone] | None | – | – | – |
| CC(O)c1ccc(N2Cc3ccccc3C2=O)cc1 (stereo not drawn) [1H-isoindol-1-one, 2,3-dihydro-2-[4-91-hydroxyethyl)phenyl]] | Increased | Increased | – | – |
| O=C1c2ccccc2CN1c1ccccc1 [1H-isoindol-1-one, 2,3-dihydro-2-phenyl] | None | None | – | – |
| O=C1NCc2ccccc21 [1H-isoindol-1-one, 2,3-dihydro-] | None | None | – | – |
| O=C(O)CCC(C(=O)O)N1Cc2ccccc2C1=O (stereo not drawn) [2-Phthalimidino-glutaric acid] | None | None | – | – |
| O=C(O)C(Cc1ccccc1)N1Cc2ccccc2C1=O (stereo not drawn) [2H-isoindol-2-acetic acid, 1,3-dihydro-1-oxo-alpha-(phenylmethyl)- . . .] | None | None | – | – |
| O=C(O)CCCN1C(=O)c2ccccc2C1=O [2H-isoindol-2-butanoic, 1,3-dihydro-1,3-dioxo] | None | None | – | – |
| Cc1ccc(C(CC(=O)O)N2Cc3ccccc3C2=O)cc1 (stereo not drawn) [2H-isoindol-2-propanoic acid, 1,3-dihydro-beta-(4-methylphenyl)-1-oxo] | None | None | – | – |
| CCC(CC)(CC)C1(O)c2ccccc2C(=O)N1C (stereo not drawn) [3-(1,1-diethylpropyl)-3-hydroxy-2-methyl-1-isoindolinone] | None | – | – | – |
| CN1C(=O)c2ccccc2C1(O)C(C)(c1ccccc1)c1ccccc1 (stereo not drawn) [3-(1,1-diphenylethyl)-3-hydroxy-2-methyl-1-isoindolinone] | None | – | – | – |
| Cc1ccc(N2C(=O)c3ccccc3C2C(=O)c2ccc(O)cc2O)cc1 (stereo not drawn) [3-(2,4-hydroxybenzoyl)-2-(4-methylphenyl)-1-isoindolinone] | None | – | – | – |
| Cc1ccc(N2C(=O)c3ccccc3C2C(=O)c2cc(O)ccc2O)cc1 (stereo not drawn) [3-(2,5-hydroxybenzoyl)-2-(4-methylphenyl)-1-isoindolinone] | None | – | – | – |
| Cc1ccc(N2C(=O)c3ccccc3C2C(=O)c2cc(C)ccc2O)cc1 (stereo not drawn) [3-(2-hydroxy-5-methylbenzoyl)-2-(4-methylphenyl)-1-isoindolinone] | None | – | – | – |
| O=C1c2ccccc2C(O)(c2ccc(Cl)cc2)N1OC1CCCCO1 (stereo not drawn) [3-(4-chlorophenyl)-3-hydroxy-2-(tetrahydropyran-2-yloxy)-1-isoindolinone] | None | – | – | – |
| CC[C@@]1(O)C(=O)OCc2c1cc1n(c2=O)Cc2cc3ccccc3nc2-1 [Camptothecin, camptothecin] | – | – | 0.4 | increased luminescence |
| CO[C@@]1(NC(=O)Cc2cccs2)C(=O)N2C(C(=O)O)=C(COC(N)=O)CS[C@@H]21 [Cefoxitin sodium, cefoxitin sodium] | – | – | 0.3 | increased luminescence |
| O=C1C=C2C(=CCOC2O)O1 (stereo not drawn) [Patulin, patulin] | – | – | 0.7 | increased luminescence |
| [O-][n+]1ccccc1[S-].[O-][n+]1ccccc1[S-].[Zn+2] [Pyrithione zinc, pyrithione zinc] | – | – | 1.0 | increased luminescence |
| CC(=O)Nc1ccc(O)cc1 [acetominophen] | – | – | – | None of these compounds resulted in increased luminescence |
| NC12CC3CC(CC(C3)C1)C2 [amantadine] | – | – | 0.3 | increased luminescence |
| CC(=O)Oc1ccccc1C(=O)O [aspirin] | – | – | – | None of these compounds resulted in increased luminescence |
| CC(C(=O)O)c1cccc(Oc2ccccc2)c1 (stereo not drawn) [fenoprofen] | – | – | – | None of these compounds resulted in increased luminescence |
| CC(C(=O)O)c1ccc(-c2ccccc2)c(F)c1 (stereo not drawn) [flurbiprofen] | – | – | – | None of these compounds resulted in increased luminescence |
| CC(C)Cc1ccc(C(C)C(=O)O)cc1 (stereo not drawn) [ibuprofen] | – | – | – | None of these compounds resulted in increased luminescence |
| CC(C(=O)O)c1cccc(C(=O)c2ccccc2)c1 (stereo not drawn) [ketoprofen] | – | – | – | None of these compounds resulted in increased luminescence |
| CC(C(=O)O)c1ccc(C(=O)c2cccs2)cc1 (stereo not drawn) [suprofen] | – | – | – | None of these compounds resulted in increased luminescence |
| Methyl 2-[4-(1,3-dioxo-2,3-dihydro-1H-isoindol-2-yl)-3-me . . . | None | – | – | – |
| Methyl 2-[4-(1,3-dioxo-2,3-dihydro-1H-isoindol-2-yl)phenyl . . . | None | – | – | – |
